Results reported in article PMC4666608, “Metabolic Profiling of Chicken Embryos Exposed to Perfluorooctanoic Acid (PFOA) and Agonists to Peroxisome Proliferator-Activated Receptors” (PLoS ONE, 2015).
Marks after values point to notes of the source that are not given here.

System: chicken embryos
Assay: Metabolic profiling of blood plasma (GC-MS, LC-MS, OPLS-DA)
Format: in vivo, Gallus gallus domesticus
Experimental: Controls were injected with 20 μL vehicle only (DMSO).
Plasma was collected and stored at -70°C.
Metabolites in allantoic fluid and blood plasma were analyzed using gas chromatography-mass spectrometry (GC-MS) and liquid chromatography-mass spectrometry (LC-MS) as described in S1 Methods. Prior to GC-MS and LC-MS analysis, allantoic fluid (100 μL) and blood plasma (50 μL) were extracted. To each sample, 900 μL (allantoic fluid) or 450 μL (blood plasma) of extraction buffer (90/10 v/v methanol:water) including all internal standards were added. Standards for GC-MS were proline, succinic acid, glutamic acid, salicylic acid, alpha-ketoglutarate, putrescine, myristic acid, hexadecanoic acid, cholesterol, and sucrose. Standards for LC-MS were Val-Tyr-Val, Leu-enkephalin, sulfadimethoxine and reserpine. Samples were homogenized by shaking in a bead mill at a frequency of 30 Hz for 3 minutes and proteins were precipitated at +4°C on ice. The samples were centrifuged at +4°C, 14000 rpm, for 10 min. Then, 200 μL supernatant was transferred to a GC microvial and 200 μL was transferred to an LC microvial, and solvents were evaporated. Samples from the four replicate experiments were analyzed using in chronological order and within each replicate experiment the run order of the individual samples was randomized.
Multivariate statistical analyses of metabolite profiles were performed using the software package SIMCA-P version 13.0 (Umetrics, Umeå, Sweden). Data was centered and scaled to variance 1 (UV scaling) prior to modelling. To reduce unintended systematic variation caused by sample processing and instrument drift, GC-MS and LC-MS metabolite amounts (expressed as the area under the chromatographic peak) were normalized by Orthogonal Partial Least Squares analysis (O2PLS) prior to multivariate data analysis. O2PLS finds common (predictive) and unique (orthogonal) variation in two data matrices. If applied to find the common variation between the data matrix containing the measured metabolite concentrations and a matrix containing only the internal standards, the only common (predictive) variation expected is due to the unintended systematic variation. By deleting the contribution of the predictive latent variables, that variation can be removed from the data. Models obtained after this normalization contain in general less latent variables, and this simplification helps when deciding on the number of latent variables to be used. Following normalization, GC-MS and LC-MS data were analyzed together. Initially, a global Principal Component Analysis (PCA) was performed to get an overview of groups and trends and to identify outliers. Projections to latent structures by means of Orthogonal Partial Least Squares Discriminant Analysis (OPLS-DA) was used to model the relationship between the X-matrix (metabolite concentrations) and the Y matrix (class, i.e. exposure group or sex), and to find x-variables that were related to class belonging. OPLS-DA is a supervised prediction and regression method that rotates the projection plane to find the maximum covariance between the data and the class assignment. All groups were first analyzed together in a 5-class OPLS-DA and then each exposure group was analyzed against the control group in a 2-class OPLS-DA. Sex differences were analyzed both using the whole data set and in each group separately using 2-class OPLS-DA, with females and males as the two classes. Only variables with 80% or more nonzero values were included in the statistical models. […] The validity of each model was also checked using CV-ANOVA (ANOVA of the cross-validated residuals). A significance level of p < 0.05 was used. For each model, R ^2 X, R ^2 Y and Q ^2 values were calculated, where R ^2 X is a measure of the fraction of x variation modeled in the extracted latent variables, R ^2 Y is a measure of the fraction of y variation modeled and Q ^2 is an estimate of the predictive ability of the model and is calculated by cross-validation. […]

Compound: CC(C)(Sc1ccc(CCN(CCCCC2CCCCC2)C(=O)NC2CCCCC2)cc1)C(=O)O [GW7647, reference compound]
- Mean concentration relative to control, feature Win006_C03 (GC): 1.3***
- Mean concentration relative to control, feature Win011_C02 (Isoleucine) (GC): 1.2**
- Mean concentration relative to control, feature Win027_C13 (GC): 0.9
- Mean concentration relative to control, feature Win031_C03 (Citric acid) (GC): 0.8**
- Mean concentration relative to control, feature Win034_C08 (Tyrosine) (GC): 1.2***
- Mean concentration relative to control, feature Win034_C09 (Tyrosine) (GC): 1.3***
- Mean concentration relative to control, feature Win039_C07 (GC): 1.8***
- Mean concentration relative to control, feature Win043_C02 (Cystathionine) (GC): 1.6***
- Mean concentration relative to control, feature Win061_C01 (GC): 1.4*
- Mean concentration relative to control, feature Win066_C03 (GC): 1.3**
- Mean concentration relative to control, feature Win088_C02 (GC): 1.2**
- Mean concentration relative to control, feature 118.0284@2.480333 (C4H6O4) (LC): 0.9
- Mean concentration relative to control, feature 122.0486@0.675613 (LC): 0.7**
- Mean concentration relative to control, feature 126.0428@1.2278157 (Thymine) (LC): 1.2***
- Mean concentration relative to control, feature 146.0362@0.7772238 (LC): 1.3**
- Mean concentration relative to control, feature 159.0686@1.1608156 (LC): 1.6**
- Mean concentration relative to control, feature 164.0449@0.7694838 (LC): 1.2**
- Mean concentration relative to control, feature 202.1024@5.0303197 (C8H14N2O4) (LC): 1.4**
- Mean concentration relative to control, feature 203.1162@0.5130696 (LC): 0.8***
- Mean concentration relative to control, feature 213.2458@7.4887733 (LC): 1
- Mean concentration relative to control, feature 215.047@1.6260729 (C5H14NO6P) (LC): 0.8***
- Mean concentration relative to control, feature 226.0721@1.9460537 (LC): 1.1**
- Mean concentration relative to control, feature 231.0174@1.6241412 (LC): 0.7**
- Mean concentration relative to control, feature 233.1265@2.535991 (LC): 1.4**
- Mean concentration relative to control, feature 250.1317@2.1334834 (LC): 1.7**
- Mean concentration relative to control, feature 260.0508@0.69984084 (LC): 0.8
- Mean concentration relative to control, feature 276.0173@1.6283482 (LC): 0.7**
- Mean concentration relative to control, feature 278.0939@1.3354088 (LC): 0.8***
- Mean concentration relative to control, feature 293.0903@1.5739433 (LC): 1.2***
- Mean concentration relative to control, feature 307.2147@7.5065937 (C18H29NO3) (LC): 0.9
- Mean concentration relative to control, feature 310.178@7.5343466 (LC): 1
- Mean concentration relative to control, feature 339.3861@9.528681 (LC): 1.1
- Mean concentration relative to control, feature 342.2883@7.526812 (LC): 1.1
- Mean concentration relative to control, feature 348.0675@1.5761927 (LC): 1.1**
- Mean concentration relative to control, feature 355.9454@0.68034226 (LC): 0.9**
- Mean concentration relative to control, feature 362.1467@0.8461036 (LC): 1.2***
- Mean concentration relative to control, feature 366.1431@1.4228548 (LC): 1.1
- Mean concentration relative to control, feature 373.296@9.044806 (LC): 0.8***
- Mean concentration relative to control, feature 375.3108@8.995564 (LC): 0.8**
- Mean concentration relative to control, feature 389.2686@9.046645 (LC): 0.9**
- Mean concentration relative to control, feature 407.0999@1.585909 (LC): 1
- Mean concentration relative to control, feature 412.135@2.4779084 (C17H24N4O6S) (LC): 0.9
- Mean concentration relative to control, feature 444.3607@10.33052 (LC): 0.9
- Mean concentration relative to control, feature 471.9819@0.685074 (LC): 0.8*
- Mean concentration relative to control, feature 489.1508@8.562614 (LC): 0.7**
- Mean concentration relative to control, feature 509.1184@2.4798179 (LC): 1
- Mean concentration relative to control, feature 525.2855@8.361063 (LC): 1.4**
- Mean concentration relative to control, feature 545.2492@8.463657 (LC): 1.2*
- Mean concentration relative to control, feature 558.4095@9.459733 (LC): 1.3
- Mean concentration relative to control, feature 565.1902@0.7699907 (LC): 1.2***
- Mean concentration relative to control, feature 577.2747@9.25652 (LC): 1.2**
- Mean concentration relative to control, feature 581.1643@0.77029324 (LC): 1.3***
- Mean concentration relative to control, feature 634.2403@1.9467853 (LC): 1.5*
- Mean concentration relative to control, feature 644.1614@0.7647065 (LC): 1.2**
- Mean concentration relative to control, feature 659.5483@11.4915495 (LC): 0.7***
- Mean concentration relative to control, feature 698.2598@1.3599721 (LC): 1.1
- Mean concentration relative to control, feature 700.5514@10.765638 (LC): 1.4*
- Mean concentration relative to control, feature 755.5465@10.73882 (LC): 0.9
- Mean concentration relative to control, feature 827.5078@8.831237 (LC): 1.5*
- Mean concentration relative to control, feature 875.4661@10.5661745 (LC): 1.3***
- Mean concentration relative to control, feature 1262.4865@1.947075 (LC): 1.1**
- Mean concentration relative to control, feature 1316.4163@1.9465046 (LC): 1.1**
- Mean concentration relative to control, feature 1591.051@5.0189176 (LC): 0.8**
- Mean concentration relative to control, feature 1591.388@5.0202384 (LC): 0.8***
- Mean concentration relative to control, feature 1591.7203@5.018071 (LC): 0.8**
